Measurements from patent US12653183B2, “Hygroscopic salt microencapsulation, and uses thereof” (priority 2020, dated 2026).

Experiments:
[1] = pH<7
feral pigs [2] = conditions: cited from earlier work
feral pigs [3] = assay: LD50 and time to death of 1080 in feral pigs; conditions: feral pigs vs wild dogs

In the case of O=NO [sodium nitrite], the “stability of sodium nitrite in the bait composition” value [1] is reported as “unstable”.

For O=C(O)CF [compound 1080, sodium fluoroacetate], the “time for pigs to die” value (feral pigs [2]) is listed as “up to 12 hours” and the “multiple of the dose used for canid pests” value (feral pigs [3]) is listed as no more than 40 fold.
